The record followed here is ChEMBL document CHEMBL3091392, “Chromenylchalcones with inhibitory effects on monoamine oxidase B” (Bioorg Med Chem, 2013).

Assay [1] concerns the target T1, Amine oxidase [flavin-containing] B (Homo sapiens, UniProt P27338).
T1 sequence (P27338 whole entry): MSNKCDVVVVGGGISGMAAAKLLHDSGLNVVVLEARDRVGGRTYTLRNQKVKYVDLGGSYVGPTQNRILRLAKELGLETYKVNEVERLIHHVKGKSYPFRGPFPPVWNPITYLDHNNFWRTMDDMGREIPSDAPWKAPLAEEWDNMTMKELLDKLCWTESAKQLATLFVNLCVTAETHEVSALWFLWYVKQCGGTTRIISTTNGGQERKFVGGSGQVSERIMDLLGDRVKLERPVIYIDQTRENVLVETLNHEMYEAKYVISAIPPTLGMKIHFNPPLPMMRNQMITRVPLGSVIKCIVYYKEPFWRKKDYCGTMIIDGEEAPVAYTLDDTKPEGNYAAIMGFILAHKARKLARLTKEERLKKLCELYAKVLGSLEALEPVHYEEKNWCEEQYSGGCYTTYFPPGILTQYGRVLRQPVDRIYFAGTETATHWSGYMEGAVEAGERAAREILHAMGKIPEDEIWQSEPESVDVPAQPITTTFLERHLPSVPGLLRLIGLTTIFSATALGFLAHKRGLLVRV
In words: Inhibition of MAO-B (unknown origin) using p-tyramine substrate by HPLC method.

Assay [2] concerns the target T1, Amine oxidase [flavin-containing] B. The assay can be described thus: Inhibition of human recombinant MAO-B expressed in insect cells by Amplex Red assay. Format: cell-based.
For assay [3] the target is unchanged. The assay can be described thus: Inhibition of human recombinant MAO-B expressed in insect cells at 10 uM by Amplex Red assay. As to conditions: read-out: INH.
The target is the same in assay [4]. The assay can be described thus: Inhibition of MAO-B (unknown origin).

For orientation: IC50 means the concentration at which inhibition is half-maximal. Take `COc1ccccc1C(=O)/C=C/C1=Cc2cc(Br)ccc2OC1`: in assay [1], the IC50 worked out at 42.8 µM.

Take `COc1ccc2c(c1)C=C(/C=C/C(=O)c1ccccc1OC)CO2`: the results for the IC50 in assay [1] and in assay [2] were 13.7 µM and 0.32 µM, respectively. For the same molecule, in assay [3], the inhibition at 10 µM was 91.6%.

For `COc1cc(OC)cc(C(=O)/C=C/C2=Cc3cc(Br)ccc3OC2)c1`, the IC50 in assay [1] is 16.7 µM. On the same count and under the same terms, in the case of `COc1cc(/C=C/C(=O)C2=Cc3cc(OC)ccc3OC2)cc(OC)c1` it was 18.3 µM. In assay [4], `O=c1c(Cc2ccc(Cl)cc2)coc2cc(Cl)cc(Cl)c12` had an IC50 of 0.437 µM. `COc1cccc(C(=O)/C=C/C2=Cc3cc(Br)ccc3OC2)c1` had an IC50 in assay [1] of 35.9 µM.
